Holding throughout (format): cell-based
For assay [1], the system named is HCC827-SVD cells (human EGFR exon 20 insertion mutant D770_N771insSVD). The experiment in a line: Cell growth inhibition (CellTiter-Glo), HCC827-SVD. The note with it: 72 h, 3 days. The procedure, abridged:
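Growth read by CellTiter-Glo luminescence after 3-day compound exposure at 37 °C. Engineered clonal HCC827 line (native EGFR deleted by CRISPR, mutant EGFR re-expressed) plated at 5000 cells/well in 10% FBS RPMI the night before dosing.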
For orientation: In ATP-based viability assays light output follows the ATP content of the culture.

Another assay relates to HCC827 cells. Nature of the assay: Cell growth inhibition (CellTiter-Glo), HCC827. The note with it: Homo sapiens, 72 h, 3 days. The essentials:
(§1)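 Readout was CellTiter-Glo luminescence after 3-day compound treatment at 37° C. Cells were seeded at 5000/well the previous night: HCC827 in RPMI/10% FBS, A431 in DMEM/10% FBS.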

Another assay concerns A431 cells. Nature of the assay: Cell growth inhibition (CellTiter-Glo), A431. The note with it: Homo sapiens, A-431, 72 h, 3 days. The essentials: as §1
Assay [2] has as its system HCC827-YVMA cells (human ERBB2 exon20 insertion mutant A775_G776ins YVMA). Nature of the assay: Cell growth inhibition (CellTiter-Glo), HCC827-YVMA. The note with it: 72 h, HCC827-YVMA cells, 3 days, CellTiter-Glo, read-out: Cell growth inhibition, GI50 (nM) HCC827-YVMA. The essentials: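 Growth in RPMI with 10% FBS was measured by CellTiter-Glo luminescence after 3 days at 37 °C with test compounds across a concentration range. The single-clone HCC827 lines carry a lentiviral YVMA (ERBB2) or ASV (EGFR) exon 20 insertion, with endogenous EGFR removed via sgRNA/Cas9.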

Assay [3] has as its system HCC827-ASV cells (human EGFR exon 20 insertion mutant V769_D770insASV). Nature of the assay: Cell growth inhibition (CellTiter-Glo), HCC827-ASV. The note with it: 72 h, HCC827-ASV cells, 3 days, CellTiter-Glo, read-out: Cell growth inhibition, GI50 (nM) HCC827-ASV. How it is done:
Generation of HCC827-SVD, HCC827-ASV, and HCC827-YVMA cell lines. The HCC827-SVD cell line was generated by first transducing HCC827 cells (ATCC) with lentiviral particles expressing codon-optimized human EGFR exon 20 insertion mutant D770_N771insSVD, and then selecting under 5 µg/mL puromycin treatment for a week. The resulting cells were further transduced with lentiviral particles carrying EGFR sgRNA and CAS9 to knockout the endogenous alleles of EGER and then selected under 500 µg/mL hygromycin B treatment for two weeks. The limiting dilution approach was used to subsequently generate the single clone of the HCC827-SVD stable cell line. Endogenous EGFR knockout was confirmed by Sanger sequencing of cell genomic DNA, and expression of exogenous mutant EGFR was verified by Western blot analysis.
HCC827-ASV and HCC827-YVMA cell lines were generated in a similar approach as HCC827-SVD, except that HCC827 cells (ATCC) were first transduced with lentiviral particles expressing codon-optimized human EGFR exon 20 insertion mutant V769_D770insASV and human ERBB2 exon20 insertion mutant A775_G776ins YVMA, respectively.
2. Cell Growth Inhibition for HCC827, HCC827-SVD, HCC827-ASV, HCC827-YVMA, and A431.
HCC827(ATCC), HCC827-SVD, HCC827-ASV, and HCC827-YVMA cells were seeded in 96-well plates at 5000 cells/well in 90 μL of RPMI growth medium containing 10% FBS and 1% Penicillin Streptomycin. A431 (ATCC) cells were seeded in 96-well plates at 5000 cells/well in 90 μL of DMEM growth medium containing 10% FBS and 1% Penicillin Streptomycin. Cells were incubated at 37° C. overnight and then administered with 10 μL 10× test compounds prepared in the growth medium at various concentrations. After administration of the compounds, cells were incubated at 37° C. for 3 days. Before the CellTiter-Glo assay, the plates were equilibrated at room temperature for approximately 30 minutes. 100 ul of CellTiter-Glo reagent (Promega) was added to each well. The plates were then incubated at room temperature for 10 minutes and luminescence was recorded by the EnSight® multimode plate reader (PerkinElmer). Table 7 listed selected compounds in cellular growth assay.

From US20240059698A1 (Accutar Biotechnology Inc., priority 2022, published 2024) come the findings set out here.

Usually GI50 stands for the concentration giving 50% growth inhibition.

Each structure is given as a SMILES string. A value given as a limit tells only on which side of the number the result lay.

Regarding `C=CC(=O)N1CCC(c2n[nH]c3ncnc(Nc4ccc(Oc5nc(-c6ccnn6C)cs5)cc4F)c23)CC1` [Compound 191, 1-(4-(4-((2-fluoro-4-((4-(1-methyl-1H-pyrazol-5-yl)thiazol-2-yl)oxy)phenyl)amino)-1H-pyrazolo[3,4-d]pyrimidin-3-yl)piperidin-1-yl)prop-2-en-1-one], the GI50 in assay [1] is 200 to 1000 nM; in the assay on HCC827 cells, 200 to 1000 nM; in the assay on A431 cells it was over 1000 nM; in assay [2] it was 200 to 1000 nM.
On to `C=CC(=O)N1CCC(c2n[nH]c3ncnc(Nc4ccc(OCc5nnsc5Cl)cc4F)c23)CC1` [Compound 195, 1-(4-(4-((4-((5-chloro-1,2,3-thiadiazol-4-yl)methoxy)-2-fluorophenyl)amino)-1H-pyrazolo[3,4-d]pyrimidin-3-yl)piperidin-1-yl)prop-2-en-1-one], for which the concentration for 50% growth inhibition (GI50) in assay [1] is under 50 nM; with HCC827 cells, under 50 nM; with A431 cells, over 1000 nM; in assay [2], 50 to 200 nM.
In the case of `C=CC(=O)N1CCC(c2ccn3ncnc(Nc4ccc(Oc5ccnc(N6CC7C(C6)C7(F)F)c5)cc4F)c23)CC1` (centres unmarked) [Compound 200, 1-(4-(4-((4-((2-(6,6-difluoro-3-azabicyclo[3.1.0]hexan-3-yl)pyridin-4-yl)oxy)-2-fluorophenyl)amino)pyrrolo[2,1-f][1,2,4]triazin-5-yl)piperidin-1-yl)prop-2-en-1-one], the concentration for 50% growth inhibition (GI50) is 50 to 200 nM in assay [1], 200 to 1000 nM in the assay on HCC827 cells, over 1000 nM with A431 cells and 50 to 200 nM in assay [2].
Take `C=CC(=O)N1CCC(c2ccn3ncnc(Nc4ccc(Oc5ccnc(N6CC(C)(OC)C6)c5)cc4F)c23)CC1` [Compound 203, 1-(4-(4-((2-fluoro-4-((2-(3-methoxy-3-methylazetidin-1-yl)pyridin-4-yl)oxy)phenyl)amino)pyrrolo[2,1-f][1,2,4]triazin-5-yl)piperidin-1-yl)prop-2-en-1-one]: the 50% growth inhibitory concentration (GI50) in assay [1] was 200 to 1000 nM; in the assay with HCC827 cells, over 1000 nM; with A431 cells, over 1000 nM; in assay [2], 50 to 200 nM.
For the molecule `C=CC(=O)N1CCC(c2ccn3ncnc(Nc4ccc(Oc5ccnc(N6CCC(C#N)C6)c5)cc4F)c23)CC1` (centres unmarked) [Compound 204, 1-(4-(4-((5-(1-acryloylpiperidin-4-yl)pyrrolo[2,1-f][1,2,4]triazin-4-yl)amino)-3-fluorophenoxy)pyridin-2-yl)pyrrolidine-3-carbonitrile], the 50% growth inhibitory concentration (GI50) in assay [1] is 50 to 200 nM; with HCC827 cells, over 1000 nM; in the assay on A431 cells, over 1000 nM; in assay [2], 50 to 200 nM.
On to `C=CC(=O)N1CCC(c2ccn3ncnc(Nc4ccc(Oc5ccnc(N6CC7(CCOCC7)C6)c5)cc4F)c23)CC1` [Compound 205, 1-(4-(4-((4-((2-(7-oxa-2-azaspiro[3.5]nonan-2-yl)pyridin-4-yl)oxy)-2-fluorophenyl)amino)pyrrolo[2,1-f][1,2,4]triazin-5-yl)piperidin-1-yl)prop-2-en-1-one], for which the concentration for 50% growth inhibition (GI50) in assay [1] was 200 to 1000 nM; in the assay with HCC827 cells it was over 1000 nM; in the assay with A431 cells, over 1000 nM; in assay [2], 50 to 200 nM.
With `C=CC(=O)N1CCC(c2ccn3ncnc(Nc4ccc(Oc5nc(-c6cnc(C)c(F)c6)cs5)cc4F)c23)CC1` [Compound 206, 1-[4-[4-[2-fluoro-4-[4-(5-fluoro-6-methyl-3-pyridyl)thiazol-2-yl]oxy-anilino]pyrrolo[2,1-f][1,2,4]triazin-5-yl]-1-piperidyl]prop-2-en-1-one], the GI50 in assay [1] is 200 to 1000 nM; in the assay with HCC827 cells, over 1000 nM; with A431 cells, over 1000 nM; in assay [2], 50 to 200 nM.
For the molecule `C=CC(=O)N1CCC(c2ccn3ncnc(Nc4ccc(Oc5nc(-c6ccnn6C)cs5)cc4F)c23)CC1` [Compound 207, 1-(4-(4-((2-fluoro-4-((4-(1-methyl-1H-pyrazol-5-yl)thiazol-2-yl)oxy)phenyl)amino)pyrrolo[2,1-f][1,2,4]triazin-5-yl)piperidin-1-yl)prop-2-en-1-one], the concentration for 50% growth inhibition (GI50) is 200 to 1000 nM in assay [1], over 1000 nM in the assay with HCC827 cells, over 1000 nM in the assay on A431 cells and 50 to 200 nM in assay [2].
Regarding `C=CC(=O)N1CCC(c2c[nH]c3ncnc(Nc4ccc(OCc5cscn5)c(Cl)c4F)c23)CC1` [Compound 216, 1-(4-(4-((3-chloro-2-fluoro-4-(thiazol-4-ylmethoxy)phenyl)amino)-7H-pyrrolo[2,3-d]pyrimidin-5-yl)piperidin-1-yl)prop-2-en-1-one], the GI50 in assay [1], in assay [3] and in assay [2] was under 50 nM in each case.
In the case of `C=CC(=O)N1CCC(c2c[nH]c3ncnc(Nc4ccc(OCc5csc(C)n5)c(Cl)c4)c23)CC1` [Compound 217, 1-(4-(4-((3-chloro-4-((2-methylthiazol-4-yl)methoxy)phenyl)amino)-7H-pyrrolo[2,3-d]pyrimidin-5-yl)piperidin-1-yl)prop-2-en-1-one], the GI50 in assay [1], in assay [3] and in assay [2] was under 50 nM in each case.
Turning to `C=CC(=O)N1CCC(c2c[nH]c3ncnc(Nc4ccc(O[C@H](C)c5cscn5)c(Cl)c4)c23)CC1` [Compound 218, (R)-1-(4-(4-((3-chloro-4-(1-(thiazol-4-yl)ethoxy)phenyl)amino)-7H-pyrrolo[2,3-d]pyrimidin-5-yl)piperidin-1-yl)prop-2-en-1-one], the GI50 in assay [1], in assay [3] and in assay [2] was under 50 nM throughout.
Consider `C=CC(=O)N1CCC(c2c[nH]c3ncnc(Nc4ccc(OCc5ncsc5C)c(Cl)c4)c23)CC1` [Compound 219, 1-(4-(4-((3-chloro-4-((5-methylthiazol-4-yl)methoxy)phenyl)amino)-7H-pyrrolo[2,3-d]pyrimidin-5-yl)piperidin-1-yl)prop-2-en-1-one], for which the GI50 in assay [1], in assay [3] and in assay [2] was under 50 nM in each case.
On to `C=CC(=O)N1CCC(c2c[nH]c3ncnc(Nc4ccc(OCc5ccccn5)c(Br)c4F)c23)CC1` [Compound 220, 1-[4-[4-[3-bromo-2-fluoro-4-(2-pyridylmethoxy)anilino]-7H-pyrrolo[2,3-d]pyrimidin-5-yl]-1-piperidyl]prop-2-en-1-one], for which the concentration for 50% growth inhibition (GI50) in assay [1], in assay [3] and in assay [2] was under 50 nM throughout.
Turning to `C=CC(=O)N1CCC(c2c[nH]c3ncnc(Nc4cc(Cl)c(OCc5ccccn5)cc4F)c23)CC1` [Compound 221, 1-(4-(4-((5-chloro-2-fluoro-4-(pyridin-2-ylmethoxy)phenyl)amino)-7H-pyrrolo[2,3-d]pyrimidin-5-yl)piperidin-1-yl)prop-2-en-1-one], the concentration for 50% growth inhibition (GI50) in assay [1], in assay [3] and in assay [2] was under 50 nM each time.
Consider `C=CC(=O)N1CCC(c2c[nH]c3ncnc(Nc4cc(Cl)c(OCc5ccccn5)cc4Cl)c23)CC1` [Compound 222, 1-[4-[4-[2,5-dichloro-4-(2-pyridylmethoxy)anilino]-7H-pyrrolo[2,3-d]pyrimidin-5-yl]-1-piperidyl]prop-2-en-1-one], for which the concentration for 50% growth inhibition (GI50) in assay [1], in assay [3] and in assay [2] was under 50 nM throughout.
On to `C=CC(=O)N1CCC(c2c[nH]c3ncnc(Nc4ccc(OCc5ncc(F)s5)c(Cl)c4)c23)CC1` [Compound 223, 1-[4-[4-[3-chloro-4-[(5-fluorothiazol-2-yl)methoxy]anilino]-7H-pyrrolo[2,3-d]pyrimidin-5-yl]-1-piperidyl]prop-2-en-1-one], for which the GI50 in assay [1], in assay [3] and in assay [2] was under 50 nM in each case.
